Assays:
[1] = cited from earlier work
EP2 prostanoid receptor = target: T1, EP2 prostanoid receptor (Homo sapiens, UniProt P43116); experiment: GloSensor cAMP assay in CHO-K1 cells co-transfected with EP2 receptor; format: cell-based
T1 construct: host or cells: CHO-K1
From the text: A cell based Chinese hamster ovary-K1 (CHO-K1) assay based on the GloSensor™ cAMP assay (Promega) was used to characterize the effect of treprostinil alkyl ester compounds on cAMP levels.
cAMP is a second messenger involved in signal transduction of G-protein coupled receptors (GPCRs) acting through Gα-s and Gα-i proteins. Because the treprostinil receptor is a GPCR, the assay provides an indication of whether the respective prostacyclin composition binds its receptor and activates the GPCR cell signaling cascade.
The GloSensor™ assay harnesses a genetically modified form of firefly luciferase into which a cAMP-binding protein moiety has been inserted. Upon binding of cAMP, a conformational change is induced leading to increased light output.
The EP2 prostanoid receptor was co-transfected with the GloSensor™ plasmid (Promega) into CHO-K1 cells as follows. CHO-K1 cells were harvested when the monoloayer was at 50-90% confluence. First, cells were washed with 5 mL PBS. […] Cell number was determined using a hemacytometer. […]
Following incubation, cells were treated and analyzed. […] Cell number was determined using a hemacytometer. […] Following an overnight incubation at 37° C. and 5% CO2 in a water-jacketed incubator, the cells were ready for use in cAMP response assays. […]

[2] = Dialysis assay against PBS (treprostinil release); format: physicochemical; conditions: 5 mL dialyzed against 1 L 1×PBS, 50 kDa MW cutoff membrane
Procedure: The results of this study can be used as an indication of which compositions might provide a sustained release profile in vivo.
5 mL of each sample was dialyzed against 1 L of 1×PBS. […] sample was collected and tested by HPLC at different time points (FIG. 7). 250 μL sample was collected at 24 h. Each time a sample was collected, an equal volume of 1×PBS was added to the dialysis bag. Absorbance data was normalized to the calculated dilution factor.

T1 sequence (P43116 whole entry): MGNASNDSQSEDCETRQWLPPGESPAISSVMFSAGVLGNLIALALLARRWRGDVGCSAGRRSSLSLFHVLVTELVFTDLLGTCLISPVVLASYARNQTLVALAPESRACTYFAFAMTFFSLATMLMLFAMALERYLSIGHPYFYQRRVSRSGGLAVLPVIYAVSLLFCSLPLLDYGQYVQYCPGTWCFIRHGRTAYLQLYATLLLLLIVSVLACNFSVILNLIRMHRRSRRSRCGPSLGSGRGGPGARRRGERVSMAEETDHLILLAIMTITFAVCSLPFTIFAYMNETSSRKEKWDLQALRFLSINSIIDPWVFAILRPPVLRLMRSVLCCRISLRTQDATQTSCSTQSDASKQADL

Compound	time to steady state plasma concentrations ([1]; continuous subcutaneous infusion, 1.25 to 22 ng/kg/min)	excreted in urine as identifiable metabolite ([1]; in vivo) [%]	excreted in urine as unchanged drug ([1]; in vivo) [%]	decrease of clearance ([1]; patients with hepatic insufficiency)	absolute bioavailability ([1]; subcutaneous administration) [%]	elimination half-life ([1]; subcutaneous administration) [h]	administered drug excreted in urine ([1]; unchanged drug or identifiable metabolite)	sustained cAMP level (EP2 prostanoid receptor)	rate of treprostinil release during dialysis [2]	half-life ([1]; in vivo) [min]
CCCCC[C@H](O)CC[C@@H]1[C@H]2Cc3cccc(OCC(=O)O)c3C[C@H]2C[C@H]1O [treprostinil]	about 10 hours	64	4	up to 80%	100	4.6	Approximately 79%	not exhibited	dialyzed out the fastest	
CCCCC[C@H](O)/C=C/[C@@H]1[C@H]2C/C(=C/CCCC(=O)O)O[C@H]2C[C@H]1O [epoprostenol]										2 to 7

Reference: patent publication US20150328232A1, “PROSTACYLIN COMPOSITIONS AND METHODS FOR USING THE SAME” (INSMED INCORPRATION, priority 2012, published 2015)
